According to patent US20250170136A1, “1,2,4-TRIAZIN-3(2H)-ONE COMPOUNDS FOR THE TREATMENT OF HYPERPROLIFERATIVE DISEASES” (BAYER AKTIENGESELLSCHAFT, priority 2019, published 2025):
pIC50: −log10 of the molar value.

Key:
[1] = test system: HeLa cells; test: Cell proliferation measurement (CellTiter-Glo, 72 h); assay type: cell-based; conditions: Homo sapiens, anti-proliferation
Protocol: (§1) The antiproliferative activity of the compounds of the general formula (I) was examined in vitro in human cancer cells. […] After 24 h, cells on one plate (0 h plate) were treated with 30 μl/cavity of CTG solution (Promega Cell Titer Glo (catalogue #G755B and G756B)) and incubated at room temperature for 10 min, and luminescence was measured by means of a VICTOR V (Perkin Elmer), in order to determine cell viability on commencement of treatment. The cells on the test plate were treated with the compounds of the general formula (I) as and incubated at 37° C. for 72 h. The compounds were added to the cells by means of an HP D300 digital dispenser in a 10-step 2,5-fold dilution series generally starting at a maximum final drug concentration of 100 nM, or 30 μM in the case of COV318. As control, the cells were treated with vehicle (DMSO at 0.3% final concentration). After 72 h, the cells were treated with 30 μl/cavity of CTG solution (Promega Cell Titer Glo (catalogue #G755B and G756B)) and incubated at room temperature for 10 min, and luminescence was measured by means of a VICTOR V (Perkin Elmer), in order to determine cell viability at the end of treatment. The percentage effect on cell growth and the IC50 derived therefrom were determined for each test substance using the values from the 0 h plate (=maximum inhibition) and the DMSO control (=minimum inhibition). The IC50 values were calculated using a 4-parameter fit.

[2] = test system: SK-MEL-3 cells; test: as above; assay type: cell-based; conditions: Homo sapiens, SK-MEL3; anti-proliferation, SK-MEL-3, 72 h
Protocol: as §1

[3] = target: human full length PDE3A (Homo sapiens (Human), UniProt Q14432); test: PDE3A enzyme inhibition (3H-cAMP Scintillation Proximity Assay); assay type: biochemical; conditions: Sf9 cell extract, 60 min room temperature
Chain of human full length PDE3A (Q14432 whole entry): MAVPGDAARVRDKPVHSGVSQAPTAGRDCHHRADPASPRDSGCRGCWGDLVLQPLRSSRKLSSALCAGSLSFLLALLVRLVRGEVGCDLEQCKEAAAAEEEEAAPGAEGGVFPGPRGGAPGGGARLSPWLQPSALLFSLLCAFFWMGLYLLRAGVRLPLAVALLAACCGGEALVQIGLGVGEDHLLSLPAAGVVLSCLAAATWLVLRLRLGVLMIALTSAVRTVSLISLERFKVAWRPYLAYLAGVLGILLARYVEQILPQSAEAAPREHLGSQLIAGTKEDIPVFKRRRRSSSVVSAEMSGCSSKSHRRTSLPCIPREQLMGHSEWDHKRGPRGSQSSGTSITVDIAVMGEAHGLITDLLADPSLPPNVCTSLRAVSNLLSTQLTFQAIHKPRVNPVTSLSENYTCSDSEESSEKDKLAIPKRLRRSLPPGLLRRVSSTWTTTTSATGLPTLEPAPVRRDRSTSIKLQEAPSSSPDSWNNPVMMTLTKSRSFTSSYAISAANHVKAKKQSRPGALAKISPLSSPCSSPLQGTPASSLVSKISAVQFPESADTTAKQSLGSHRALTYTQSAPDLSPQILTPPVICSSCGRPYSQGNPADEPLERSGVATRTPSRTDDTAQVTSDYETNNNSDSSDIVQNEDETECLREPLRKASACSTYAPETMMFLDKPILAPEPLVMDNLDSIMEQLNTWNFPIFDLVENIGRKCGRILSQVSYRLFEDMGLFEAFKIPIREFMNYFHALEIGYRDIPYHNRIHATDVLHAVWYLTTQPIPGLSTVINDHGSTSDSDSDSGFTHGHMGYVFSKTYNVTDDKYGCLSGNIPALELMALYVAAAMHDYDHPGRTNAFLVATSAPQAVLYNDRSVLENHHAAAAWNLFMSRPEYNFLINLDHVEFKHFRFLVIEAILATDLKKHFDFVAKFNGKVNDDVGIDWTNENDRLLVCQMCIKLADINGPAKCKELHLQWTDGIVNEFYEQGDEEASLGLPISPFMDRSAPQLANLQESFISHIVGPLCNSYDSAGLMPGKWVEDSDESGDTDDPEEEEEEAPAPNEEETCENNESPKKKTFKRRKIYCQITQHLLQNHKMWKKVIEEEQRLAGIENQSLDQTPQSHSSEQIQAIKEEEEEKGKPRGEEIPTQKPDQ
Protocol: (§2) The commercially available 3H-cAMP Scintillation Proximity Assay (SPA, Perkin Elmer) system was used for enzyme inhibition studies. For the determination of the in vitro effect of example compounds on the PDE3A reactions 2 μl of the respective example compound solution in DMSO (serial dilutions) were placed in wells of microtiter plates (Isoplate-96/200W; Perkin Elmer). 50 μl of a dilution of PDE3A cell extract from Sf9 cells overexpressing human full length PDE3A (SB Drug Discovery, UK) in buffer A (50 mM Tris/HCl pH 7.5, 8.3 mM MgCl2, 1.7 mM EDTA, 0.2% BSA) was added. The dilution of the PDE3A cell extract was chosen such that the reaction kinetics was linear and less than 70% of the substrate was consumed (typical dilution 1:5000). The reaction was started by addition of 50 μl (0.025 μCi) of 1:2000 in buffer A w/o BSA diluted substrate [8-3H]adenosine 3′, 5′-cyclic phosphate (1 μCi/μl; Perkin Elmer). After incubation at room temperature for 60 min, the reaction was stopped by addition of 25 μl of a suspension containing 18 mg/ml yttrium scintillation proximity beads (Perkin Elmer) in water. The microtiter plates were sealed and measured in a Microbeta scintillation counter (PerkinElmer Wallac). IC50 values were determined from sigmoidal curves by plotting percentage PDE3A activity vs log compound concentration.

[4] = target: human full length PDE3B (Homo sapiens (Human), UniProt Q13370); test: PDE3B enzyme inhibition (3H-cAMP Scintillation Proximity Assay); assay type: biochemical; conditions: Sf9 cell extract, 60 min room temperature
Chain of human full length PDE3B (Q13370 whole entry): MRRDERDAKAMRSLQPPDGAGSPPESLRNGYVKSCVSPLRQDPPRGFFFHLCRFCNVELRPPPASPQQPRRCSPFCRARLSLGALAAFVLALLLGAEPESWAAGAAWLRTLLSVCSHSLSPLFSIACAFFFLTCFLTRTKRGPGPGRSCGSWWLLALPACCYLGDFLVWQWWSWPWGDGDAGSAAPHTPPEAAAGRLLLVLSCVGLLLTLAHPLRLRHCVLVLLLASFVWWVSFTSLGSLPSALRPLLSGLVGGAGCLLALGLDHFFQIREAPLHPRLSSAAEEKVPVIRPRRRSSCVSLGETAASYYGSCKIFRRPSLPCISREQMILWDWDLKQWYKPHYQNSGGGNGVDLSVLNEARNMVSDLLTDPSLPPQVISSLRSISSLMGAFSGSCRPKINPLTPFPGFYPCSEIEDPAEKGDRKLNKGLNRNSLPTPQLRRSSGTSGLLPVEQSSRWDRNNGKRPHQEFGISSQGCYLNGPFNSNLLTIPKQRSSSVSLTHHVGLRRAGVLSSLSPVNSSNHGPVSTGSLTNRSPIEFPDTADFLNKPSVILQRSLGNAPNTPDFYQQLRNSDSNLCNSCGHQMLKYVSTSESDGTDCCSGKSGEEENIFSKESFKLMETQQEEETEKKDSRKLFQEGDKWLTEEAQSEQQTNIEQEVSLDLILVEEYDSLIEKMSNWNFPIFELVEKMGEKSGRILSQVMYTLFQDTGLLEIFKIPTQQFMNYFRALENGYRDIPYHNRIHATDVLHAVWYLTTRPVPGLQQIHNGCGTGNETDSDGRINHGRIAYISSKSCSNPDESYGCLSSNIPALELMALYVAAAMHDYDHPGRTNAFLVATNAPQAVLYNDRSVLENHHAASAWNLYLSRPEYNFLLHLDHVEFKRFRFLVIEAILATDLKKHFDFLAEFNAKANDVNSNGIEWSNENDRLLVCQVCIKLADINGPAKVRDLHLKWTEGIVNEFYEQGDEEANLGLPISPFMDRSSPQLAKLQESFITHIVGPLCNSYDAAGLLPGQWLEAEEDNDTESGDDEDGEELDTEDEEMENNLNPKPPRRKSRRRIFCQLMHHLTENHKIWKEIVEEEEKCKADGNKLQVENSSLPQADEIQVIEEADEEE
Protocol: as §2, with “PDE3B” for “PDE3A”, “1:6000).” for “1:5000).”

pIC50 [1]	pIC50 [2]	pIC50 [3]	pIC50 [4]	Structure (SMILES)
9.15	9.52	8.30	8.22	C[C@@H]1NC(=O)NN=C1c1ccc(NCc2ccn[nH]2)c(C(F)(F)F)c1 [Example 2, (5S)-5-methyl-6-[4-{[(1H-pyrazol-5-yl)methyl]amino}-3-(trifluoromethyl)phenyl]-4,5-dihydro-1,2,4-triazin-3(2H)-one]
10.00	9.52	8.70	9.00	C[C@@H]1NC(=O)NN=C1c1ccc(N2CC(C)(O)C2)c(C(F)(F)F)c1 [Example 3, (5S)-6-[4-(3-hydroxy-3-methylazetidin-1-yl)-3-(trifluoromethyl)phenyl]-5-methyl-4,5-dihydro-1,2,4-triazin-3(2H)-one]
10.00	9.40	8.70	9.00	C[C@@H]1NC(=O)NN=C1c1ccc(NC2CCCC2)c(C(F)(F)F)c1 [Example 4, (5S)-6-[4-(cyclopentylamino)-3-(trifluoromethyl)phenyl]-5-methyl-4,5-dihydro-1,2,4-triazin-3(2H)-one]
9.70	9.22	8.40	8.30	C[C@@H]1NC(=O)NN=C1c1ccc(NC[C@@H](O)C(F)(F)F)c(C(F)(F)F)c1 [Example 5, (5S)-5-methyl-6-[4-{[(2R)-3,3,3-trifluoro-2-hydroxypropyl]amino}-3-(trifluoromethyl)phenyl]-4,5-dihydro-1,2,4-triazin-3(2H)-one]
9.52	9.15	8.40	8.30	C[C@@H]1NC(=O)NN=C1c1ccc(NCc2cnccn2)c(C(F)(F)F)c1 [Example 6, (5S)-5-methyl-6-[4-{[(pyrazin-2-yl)methyl]amino}-3-(trifluoromethyl)phenyl]-4,5-dihydro-1,2,4-triazin-3(2H)-one]
